From publication PMC9221371, “Flavonoid Derivatives as Potential Cholinesterase Inhibitors in Scopolamine-Induced Amnesic Mice: An In Vitro, In Vivo and Integrated Computational Approach” (Brain Sciences, 2022)

Experiments:
[1] = target: T1, AChE (electric eel type-VI-S) (Electrophorus electricus, UniProt O42275); experiment: biochemical; conditions: 25 °C, triplicate
T1 construct: purchased Sigma-Aldrich (Taufkirchen, Germany)
Description: (§1) Synthetic flavonoids F1–F5 previously synthesized by our group were used in the study.
(§2) For the determination of acetylcholinesterase inhibitory potentials, AChE and BuChE were used. […] To the tube were added DTNB (100 µL) and buffer (2.4 mL). The tube was incubated at 25 °C for 5 min as pre-incubation. The reaction was started by adding ATChI (40 µL), and the mixture was incubated at 25 °C for 20 min. The absorbance at 412 nm was measured spectrophotometrically in triplicate. […] The data were recorded in triplicate, and IC50 was calculated.

[2] = target: T2, BuChE (equine serum lyophilized) (Equus caballus, UniProt P81908); experiment: biochemical; conditions: triplicate; read-out: BChE IC50 (converted)
T2 construct: purchased Sigma-Aldrich (Taufkirchen, Germany); host or cells: equine serum
T2 sequence (P81908 whole entry): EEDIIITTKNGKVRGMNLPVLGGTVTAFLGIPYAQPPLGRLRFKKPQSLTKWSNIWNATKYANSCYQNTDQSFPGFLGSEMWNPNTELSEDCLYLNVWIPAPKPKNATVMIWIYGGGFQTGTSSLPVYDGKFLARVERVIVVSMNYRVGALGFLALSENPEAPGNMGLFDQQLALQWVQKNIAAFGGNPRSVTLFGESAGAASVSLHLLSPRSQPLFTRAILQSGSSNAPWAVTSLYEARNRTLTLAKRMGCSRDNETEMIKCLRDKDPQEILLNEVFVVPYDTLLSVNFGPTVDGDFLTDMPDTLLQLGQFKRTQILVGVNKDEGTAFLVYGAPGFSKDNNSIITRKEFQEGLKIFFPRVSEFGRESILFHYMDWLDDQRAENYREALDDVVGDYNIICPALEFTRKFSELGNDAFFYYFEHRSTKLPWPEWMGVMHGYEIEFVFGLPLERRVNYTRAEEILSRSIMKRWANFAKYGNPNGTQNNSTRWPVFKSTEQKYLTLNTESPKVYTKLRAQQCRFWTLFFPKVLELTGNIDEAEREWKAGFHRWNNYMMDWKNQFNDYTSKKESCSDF
Description: as §1, §2

[3] = tested on: scopolamine-induced amnesic mice; experiment: Y-Maze Paradigm, spontaneous alternation in scopolamine-induced amnesic model; type: in vivo, Balb/C mice; conditions: scopolamine 1 mg/kg i.p., n = 8
Source text: For assessment of acute toxicity of the flavones (F1–F5), animals (21 in number) were divided into groups of 3 animals each. The reported protocols by Lorke were followed with slight modification to perform tests in two phases. In the first phase, one (control) group of animals were given Tween-80 (2%), and oral doses of F1–F5 were given to the remaining groups, respectively, at various doses (mg/kg body weight). […] The animals were housed in plastic cages. After two weeks, the animals were sacrificed by euthanasia with isoflurane in a humane manner for assessment of the effects on total weight and weight of the vital organs. The biochemical parameters of blood and histological studies of vital organs (kidney and liver tissue) were also assessed. […] The preliminary pharmacological activity was assessed at various dose concentrations of F1–F5 (2.5–20 mg/kg b.w.) to determine the effective dose for assessment of cognitive function using animal models.
(§3) The animals in the control (normal) and scopolamine amnesic groups were administered vehicle (Tween-80, 2%) only. Treated animals received F1–F5 suspended in Tween-80 (2%) p.o. at their respective doses for a period of 4 weeks. […] For assessing behavioral effects using the Y-Maze Paradigm and novel object discrimination (NOD) task, scopolamine (1 mg/kg, i.p.) was given to the different groups, 30 min after the respective treatments, to induce memory impairment (amnesia) in mice. All of the tests were performed between 8:00 a.m. and 6:00 p.m. to avoid sham results in the performance of the animals.
Behavioral tasks on the Y-Maze Paradigm and “NOD” tasks were conducted in the 5th week of study to determine learning and memory functions. The apparatus arena was cleaned with 70% ethanol during the inter-trial interval to prevent a confounding error due to the influence of odor [20, 21].
The Y-Maze task is a non-invasive and reliable behavioral test that was used for memory assessment of spontaneous alternation for F1–F5 based on previously reported protocols. A single session of Y-Maze was used to record the spontaneous alternation behavior of the animals to determine exploratory behavior and instant memory functioning. The apparatus was made of three arms in a “Y” shape (35 cm × 8 cm × 15 cm) with an equilateral triangular central area. In brief, each of the mice, previously naive to the maze, was placed at the terminal end of one arm. The animals were allowed to move and explore freely for 8 min through the maze. The number of arm entries was noted. One arm entry was considered when the hind paws of the animal were completely placed inside the arm, and the series of arm entries were documented. The spontaneous alternation in percent was calculated.

[4] = tested on: brains of scopolamine-induced amnesic mice; experiment: Antioxidant enzyme activities and oxidative stress markers in brain homogenate; type: in vivo, Balb/C mice; conditions: n = 8
Description: as §3
The brain was extracted, and a homogenate (10% w/v) in 0.1 M of phosphate buffer (pH 7.4) was prepared by centrifugation for the assessment of brain oxidative status and estimating brain acetylcholinesterase activity. Catalase (CAT), superoxide dismutase (SOD), glutathione (GSH) and level of lipid peroxidation (malondialdehyde, MDA) were quantified as oxidative stress markers.

T1 sequence (O42275 24-633): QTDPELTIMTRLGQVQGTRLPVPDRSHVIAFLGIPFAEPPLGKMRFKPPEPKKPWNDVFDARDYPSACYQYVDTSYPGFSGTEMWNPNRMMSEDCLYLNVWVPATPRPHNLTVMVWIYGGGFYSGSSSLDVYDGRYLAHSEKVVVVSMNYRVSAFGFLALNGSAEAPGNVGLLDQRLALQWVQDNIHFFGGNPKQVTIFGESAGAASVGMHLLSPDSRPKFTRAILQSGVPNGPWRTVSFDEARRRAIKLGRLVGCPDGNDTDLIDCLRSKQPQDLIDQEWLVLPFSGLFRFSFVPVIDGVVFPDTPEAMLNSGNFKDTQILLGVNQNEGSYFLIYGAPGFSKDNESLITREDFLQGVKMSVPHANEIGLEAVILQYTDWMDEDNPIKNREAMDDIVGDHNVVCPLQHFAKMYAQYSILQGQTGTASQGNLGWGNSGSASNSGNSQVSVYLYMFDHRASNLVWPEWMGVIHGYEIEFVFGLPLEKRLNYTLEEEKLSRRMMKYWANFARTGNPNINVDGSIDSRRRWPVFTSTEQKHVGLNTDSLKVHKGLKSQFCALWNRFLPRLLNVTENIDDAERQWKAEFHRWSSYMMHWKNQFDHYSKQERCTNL

SMILES | IC50 [1] | IC50 [2] | Spontaneous Alternation Performance ([3]; 7.5 mg/kg b.w. p.o. 4 weeks) | Spontaneous Alternation Performance ([3]; 15 mg/kg b.w. p.o. 4 weeks) | CAT ([4]; 7.5 mg/kg b.w.) | GSH ([4]; 7.5 mg/kg b.w.) | MDA ([4]; 7.5 mg/kg b.w.) | SOD ([4]; 7.5 mg/kg b.w.) | CAT ([4]; 15 mg/kg b.w.) | GSH ([4]; 15 mg/kg b.w.) | MDA ([4]; 15 mg/kg b.w.) | SOD ([4]; 15 mg/kg b.w.)
O=c1cc(-c2cccc(Cl)c2Cl)oc2ccccc12 [Compound F3] | 434 µM | 505 µM | 59.61 ± 1.61 % | 65.78 ± 1.57 % | 22.97 ± 1.71 U/mg of Protein | 35.61 ± 1.55 μg/mg of Protein | 16.37 ± 1.13 nmol/mg Protein | 9.19 ± 1.21 U/mg of Protein | 24.50 ± 1.41 U/mg of Protein | 36.98 ± 1.66 μg/mg of Protein | 15.94 ± 1.65 nmol/mg Protein | 9.41 ± 1.29 U/mg of Protein
O=c1cc(-c2ccc(Cl)c(Cl)c2)oc2ccccc12 [Compound F4] | 386 µM | 418 µM | 57.92 ± 1.41 % | 66.70 ± 1.63 % | 22.21 ± 1.40 U/mg of Protein | 36.21 ± 1.35 μg/mg of Protein | 15.74 ± 1.21 nmol/mg Protein | 9.30 ± 1.41 U/mg of Protein | 23.39 ± 1.32 U/mg of Protein | 38.30 ± 1.40 μg/mg of Protein | 15.01 ± 1.37 nmol/mg Protein | 9.71 ± 1.56 U/mg of Protein
